According to US20240132513A1, “BENZAZEPINE DERIVATIVES, COMPOSITIONS, AND METHODS FOR TREATING COGNITIVE IMPAIRMENT” (AGENEBIO, INC., priority 2022, published 2024):
Where two headings read alike, the source gives them in different places.

Assays:
GABAA R (α5β2γ2) = biological target: T1, GABAA R (α5β2γ2) (Homo sapiens, UniProt P18507+P31644); assay: Positive allosteric modulator activity: potentiation of EC20 GABA current in oocytes; assay type: cell-based
T1 construct: expressed in transfected cells
Method in brief: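 Xenopus oocytes injected with 1 ng α5:β2:γ2 cDNA (1:1:10 by weight), tested day 2, voltage-clamped at −60 mV under MBS superfusion.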

α5β3γ2 GABAA R = α5β3γ2 GABAA R (Homo sapiens, UniProt P18507+P31644); assay: Binding activity on GABAA R: inhibition of [3H]Ro15-1788 binding, α5 containing receptor
Method in brief: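 Membranes from dexamethasone-induced (0.5 μM, 1 day) Ltk cells stably expressing α5β3γ2 receptors, 0.2 mg/ml protein, incubated with [3H]Ro15-1788 for 1 h at 4 °C in 50 mM KH2PO4/1 mM EDTA/0.2 M KCl, pH 7.4. Nonspecific binding with 10 μM diazepam; bound ligand by GF/B filtration and scintillation counting, triplicates.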

[1] = read-out: GABA α5 Functional Data: potentiation
[2] = ranges of the column heads, [3H]Ro15-1788, Ltk cell membranes
[3] = read-out: GABA α5 Functional Data: potentiation, @ 100 nM, EC20 GABA, ranges of the column heads

Sequence of α5β3γ2 GABAA R (P31644 32-462): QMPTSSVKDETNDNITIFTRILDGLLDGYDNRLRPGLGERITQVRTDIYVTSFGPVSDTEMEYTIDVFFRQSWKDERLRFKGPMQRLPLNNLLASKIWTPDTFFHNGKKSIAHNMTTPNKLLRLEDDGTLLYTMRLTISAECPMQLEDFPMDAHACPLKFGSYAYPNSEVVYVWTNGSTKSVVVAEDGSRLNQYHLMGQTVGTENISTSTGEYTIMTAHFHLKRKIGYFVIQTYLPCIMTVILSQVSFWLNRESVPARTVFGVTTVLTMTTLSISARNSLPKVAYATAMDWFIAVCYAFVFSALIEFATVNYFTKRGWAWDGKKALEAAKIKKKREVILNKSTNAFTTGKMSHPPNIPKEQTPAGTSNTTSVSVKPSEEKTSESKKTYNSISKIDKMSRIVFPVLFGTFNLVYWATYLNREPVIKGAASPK
Sequence of α5β3γ2 GABAA R (P28472 26-473 partner): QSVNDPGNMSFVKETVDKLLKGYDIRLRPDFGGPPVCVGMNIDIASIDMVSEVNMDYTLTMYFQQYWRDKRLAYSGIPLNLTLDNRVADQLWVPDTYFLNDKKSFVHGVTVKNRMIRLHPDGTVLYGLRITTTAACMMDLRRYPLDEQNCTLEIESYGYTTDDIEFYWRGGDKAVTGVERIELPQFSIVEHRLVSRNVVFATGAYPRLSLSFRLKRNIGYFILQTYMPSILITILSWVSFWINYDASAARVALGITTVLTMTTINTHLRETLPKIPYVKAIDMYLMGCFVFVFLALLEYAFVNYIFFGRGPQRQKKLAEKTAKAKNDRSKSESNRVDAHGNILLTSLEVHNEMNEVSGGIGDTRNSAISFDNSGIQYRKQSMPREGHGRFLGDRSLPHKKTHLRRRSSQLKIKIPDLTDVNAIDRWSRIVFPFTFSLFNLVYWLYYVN
Sequence of α5β3γ2 GABAA R (P18507 40-475): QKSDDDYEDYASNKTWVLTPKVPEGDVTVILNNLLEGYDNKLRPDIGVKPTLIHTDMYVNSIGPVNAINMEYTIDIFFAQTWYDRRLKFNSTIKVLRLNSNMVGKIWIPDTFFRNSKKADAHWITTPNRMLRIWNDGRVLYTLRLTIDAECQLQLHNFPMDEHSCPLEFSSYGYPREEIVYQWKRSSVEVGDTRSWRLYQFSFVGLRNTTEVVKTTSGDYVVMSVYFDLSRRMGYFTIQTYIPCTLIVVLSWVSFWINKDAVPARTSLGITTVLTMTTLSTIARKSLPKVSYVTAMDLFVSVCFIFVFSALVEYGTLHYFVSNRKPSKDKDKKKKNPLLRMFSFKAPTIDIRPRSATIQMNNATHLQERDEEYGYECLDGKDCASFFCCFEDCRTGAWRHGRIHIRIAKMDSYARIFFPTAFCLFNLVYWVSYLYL
T1 sequence (P31644 32-462): as the sequence (P31644 32-462) above
T1 sequence (P47870 25-512 partner limits assumed): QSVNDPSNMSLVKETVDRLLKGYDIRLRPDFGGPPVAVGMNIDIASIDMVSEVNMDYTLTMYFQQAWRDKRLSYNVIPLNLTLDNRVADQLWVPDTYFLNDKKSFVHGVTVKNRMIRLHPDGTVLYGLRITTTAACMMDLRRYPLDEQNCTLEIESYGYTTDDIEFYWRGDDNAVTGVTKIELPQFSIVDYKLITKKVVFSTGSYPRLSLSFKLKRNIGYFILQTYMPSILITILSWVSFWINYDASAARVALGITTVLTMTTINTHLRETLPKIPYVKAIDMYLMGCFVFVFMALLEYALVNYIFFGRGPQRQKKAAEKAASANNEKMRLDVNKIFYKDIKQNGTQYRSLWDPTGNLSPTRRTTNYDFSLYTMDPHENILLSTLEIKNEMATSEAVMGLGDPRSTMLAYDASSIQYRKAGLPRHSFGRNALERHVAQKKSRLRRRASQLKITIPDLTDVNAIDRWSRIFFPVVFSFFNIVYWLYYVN
T1 sequence (P18507 40-475): as the sequence (P18507 40-475) above

Compound: CCn1ncc2c1-c1cc(Cl)ccc1-n1cnc(-c3nc(C4CC4)no3)c1C2 [Compound 139]
- activation at 0.1 µM (GABAA R (α5β2γ2); [1]): 20 to 50%
- Ki (α5β3γ2 GABAA R; [2]): < 100 nM

Compound: COc1ccc2c(c1)-c1nn(C)cc1Cc1c(-c3noc([C@H]4CCOC4)n3)ncn1-2 [Compound 257]
- activation at 0.1 µM (GABAA R (α5β2γ2); [3]): 20 to 50%
- Ki (α5β3γ2 GABAA R): < 100 nM

Compound: Cn1cc2c(n1)-c1cc(Cl)ccc1-n1cnc(-c3nc(COC4COC4)co3)c1C2 [Compound 285]
- activation at 0.1 µM (GABAA R (α5β2γ2); [3]): > 50%
- Ki (α5β3γ2 GABAA R): < 100 nM

Compound: COc1ccc2c(c1)-c1[nH]ncc1Cc1c(-c3noc(C4(OC)CC4)n3)ncn1-2 [Compound 188]
- activation at 0.1 µM (GABAA R (α5β2γ2); [1]): > 50%
- Ki (α5β3γ2 GABAA R; [2]): < 100 nM

Compound: COc1ccc2c(c1)-c1nn(C3CCOC3)cc1Cc1c(-c3nc(C4CC4)no3)ncn1-2 (stereo not drawn) [Compound 247]
- activation at 0.1 µM (GABAA R (α5β2γ2); [3]): 20 to 50%
- Ki (α5β3γ2 GABAA R): < 100 nM

Compound: COc1ccc2c(c1)-c1nn(C)cc1Cc1c(-c3nc([C@H]4CCOC4)no3)ncn1-2 [Compound 252]
- activation at 0.1 µM (GABAA R (α5β2γ2); [3]): 20 to 50%
- Ki (α5β3γ2 GABAA R): < 100 nM

Compound: CC(C)c1noc(-c2ncn3c2Cc2cn(C)nc2-c2cc(Cl)ccc2-3)n1 [Compound 103]
- activation at 0.1 µM (GABAA R (α5β2γ2); [1]): 5 to 20%
- Ki (α5β3γ2 GABAA R; [2]): < 100 nM

Compound: Cn1cc2c(n1)-c1cc(Cl)ccc1-n1cnc(-c3noc(C4COCCO4)n3)c1C2 (stereo not drawn) [Compound 213]
- activation at 0.1 µM (GABAA R (α5β2γ2); [3]): > 50%
- Ki (α5β3γ2 GABAA R): < 100 nM

Compound: Cn1cc2c(n1)-c1cc(Cl)ccc1-n1cnc(-c3nnc(C(F)(F)F)o3)c1C2 [Compound 210]
- activation at 0.1 µM (GABAA R (α5β2γ2); [3]): 20 to 50%
- Ki (α5β3γ2 GABAA R): < 100 nM

Compound: COc1ccc(Cn2ncc3c2-c2cc(OC)ccc2-n2cnc(-c4noc(COCC(F)(F)F)n4)c2C3)cc1 [Compound 173]
- activation at 0.1 µM (GABAA R (α5β2γ2); [3]): 5 to 20%
- Ki (α5β3γ2 GABAA R): < 100 nM

Compound: COc1ccc2c(c1)-c1nn(CC3COC3)cc1Cc1c(-c3nc(COC4CCOC4)no3)ncn1-2 (stereo not drawn) [Compound 310]
- activation at 0.1 µM (GABAA R (α5β2γ2); [3]): 20 to 50%
- Ki (α5β3γ2 GABAA R): < 100 nM

Compound: CC(C)c1nc(-c2ncn3c2Cc2cn[nH]c2-c2cc(Cl)ccc2-3)no1 [Compound 84]
- activation at 0.1 µM (GABAA R (α5β2γ2); [3]): 5 to 20%
- Ki (α5β3γ2 GABAA R): < 100 nM

Compound: Clc1ccc2c(c1)-c1[nH]ncc1Cc1c(-c3nc(C4CCCC4)no3)ncn1-2 [Compound 115]
- activation at 0.1 µM (GABAA R (α5β2γ2); [3]): 5 to 20%
- Ki (α5β3γ2 GABAA R): < 100 nM

Compound: CC(C)c1noc(-c2ncn3c2Cc2cn(C(C)C)nc2-c2cc(Cl)ccc2-3)n1 [Compound 138]
- activation at 0.1 µM (GABAA R (α5β2γ2); [3]): 20 to 50%
- Ki (α5β3γ2 GABAA R): < 100 nM

Compound: COc1ccc2c(c1)-c1nn(C)cc1Cc1c(-c3ncc(C)o3)ncn1-2 [Compound 286]
- activation at 0.1 µM (GABAA R (α5β2γ2); [3]): 5 to 20%
- Ki (α5β3γ2 GABAA R): < 100 nM

Compound: CC(C)c1nc(-c2ncn3c2Cc2cn(C(C)C)nc2-c2cc(Cl)ccc2-3)no1 [Compound 150]
- activation at 0.1 µM (GABAA R (α5β2γ2); [3]): 20 to 50%
- Ki (α5β3γ2 GABAA R): < 100 nM

Compound: COc1ccc2c(c1)-c1nn(C)cc1Cc1c(-c3noc(COC4CCCC4)n3)ncn1-2 [Compound 297]
- activation at 0.1 µM (GABAA R (α5β2γ2); [3]): 5 to 20%
- Ki (α5β3γ2 GABAA R): < 100 nM

Compound: Cn1cc2c(n1)-c1cc(Cl)ccc1-n1cnc(-c3noc(C(C)(C)C)n3)c1C2 [Compound 143]
- activation at 0.1 µM (GABAA R (α5β2γ2); [3]): 5 to 20%
- Ki (α5β3γ2 GABAA R): < 100 nM

Compound: CC(C)c1noc(-c2ncn3c2Cc2cn[nH]c2-c2cc(Cl)ccc2-3)n1 [Compound 34]
- activation at 0.1 µM (GABAA R (α5β2γ2); [3]): 20 to 50%
- Ki (α5β3γ2 GABAA R): < 100 nM

Compound: CCOCc1nc(-c2ncn3c2Cc2cn(C)nc2-c2cc(OC)ccc2-3)no1 [Compound 137]
- activation at 0.1 µM (GABAA R (α5β2γ2); [3]): 20 to 50%
- Ki (α5β3γ2 GABAA R): < 100 nM

Compound: COc1ccc2c(c1)-c1nn(CC3CCOC3)cc1Cc1c(-c3ncc(C)o3)ncn1-2 (stereo not drawn) [Compound 287]
- activation at 0.1 µM (GABAA R (α5β2γ2); [1]): 20 to 50%
- Ki (α5β3γ2 GABAA R; [2]): < 100 nM

Compound: Cc1nnc(-c2ncn3c2Cc2cn(C)nc2-c2cc(Cl)ccc2-3)o1 [Compound 209]
- activation at 0.1 µM (GABAA R (α5β2γ2); [3]): 20 to 50%
- Ki (α5β3γ2 GABAA R): < 100 nM

Compound: COc1ccc2c(c1)-c1nn(CC3CCCO3)cc1Cc1c(-c3nnc(C(F)(F)F)o3)ncn1-2 (stereo not drawn) [Compound 302]
- activation at 0.1 µM (GABAA R (α5β2γ2); [3]): 5 to 20%
- Ki (α5β3γ2 GABAA R): < 100 nM

Compound: COc1ccc2c(c1)-c1nn(C)cc1Cc1c(-c3nc([C@@H]4CCOC4)no3)ncn1-2 [Compound 260]
- activation at 0.1 µM (GABAA R (α5β2γ2); [3]): 5 to 20%
- Ki (α5β3γ2 GABAA R): < 100 nM

Compound: COc1ccc2c(c1)-c1n[nH]cc1Cc1c(-c3noc(C(C)(C)OC)n3)ncn1-2 [Compound 181]
- activation at 0.1 µM (GABAA R (α5β2γ2); [1]): > 50%
- Ki (α5β3γ2 GABAA R; [2]): < 100 nM

Compound: COc1ccc2c(c1)-c1nn(CC3CCCO3)cc1Cc1c(-c3noc(C4COC4)n3)ncn1-2 (stereo not drawn) [Compound 294]
- activation at 0.1 µM (GABAA R (α5β2γ2); [3]): > 50%
- Ki (α5β3γ2 GABAA R): < 100 nM

Compound: Cc1nc(-c2ncn3c2Cc2cn(C(C)C)nc2-c2cc(Cl)ccc2-3)no1 [Compound 147]
- activation at 0.1 µM (GABAA R (α5β2γ2); [1]): 5 to 20%
- Ki (α5β3γ2 GABAA R; [2]): < 100 nM

Compound: CC(C)n1cc2c(n1)-c1cc(Cl)ccc1-n1cnc(-c3noc(C4COCCO4)n3)c1C2 (stereo not drawn) [Compound 268]
- activation at 0.1 µM (GABAA R (α5β2γ2); [3]): 20 to 50%
- Ki (α5β3γ2 GABAA R): < 100 nM

Compound: Cn1cc2c(n1)-c1cc(Cl)ccc1-n1cnc(-c3nc(C4CCOCC4)no3)c1C2 [Compound 219]
- activation at 0.1 µM (GABAA R (α5β2γ2); [3]): 5 to 20%
- Ki (α5β3γ2 GABAA R): < 100 nM

Compound: Clc1ccc2c(c1)-c1nn(CC3CCCO3)cc1Cc1c(-c3nc(C4CCOC4)no3)ncn1-2 (stereo not drawn) [Compound 281]
- activation at 0.1 µM (GABAA R (α5β2γ2); [3]): 5 to 20%
- Ki (α5β3γ2 GABAA R): < 100 nM
